Assay results from ChEMBL document CHEMBL3046079, “Synthesis, herbicidal activity, and mode of action of IR 5790” (J Agric Food Chem, 2001).

Experiments:
[1] = system: Amaranthus retroflexus; assay: Post-emergence herbicidal activity against Amaranthus retroflexus assessed as injury at 150 g/ha applied at 15 days post-sowing measured after 15 days relative to control; format: functional
[2] = system: Avena fatua; assay: Post-emergence herbicidal activity against Avena fatua assessed as injury at 15 g/ha applied at 15 days post-sowing measured after 15 days relative to control; format: functional
[3] = system: Triticum aestivum; assay: Phytotoxicity against Triticum aestivum (wheat) assessed as injury at 150 g/ha applied as post-emergent treatment at 15 days post-sowing measured after 15 days relative to control; format: organism-based; details: in vivo, other, 360 h
[4] = system: Panicum dichotomiflorum; assay: Pre-emergence herbicidal activity against Panicum dichotomiflorum assessed as injury at 50 g/ha applied at 24 hr post-sowing measured after 28 days relative to control; format: functional
[5] = system: Chenopodium album; assay: Post-emergence herbicidal activity against Chenopodium album assessed as injury at 5 g/ha applied at 15 days post-sowing measured after 15 days relative to control; format: functional
[6] = system: Oryza sativa; assay: Phytotoxicity against Oryza sativa (rice) assessed as injury at 50 g/ha applied as pre-emergent treatment at 24 hr post-sowing measured after 28 days relative to control; format: organism-based; details: in vivo, other, 672 h
[7] = system: Avena fatua; assay: Post-emergence herbicidal activity against Avena fatua assessed as injury at 50 g/ha applied at 15 days post-sowing measured after 15 days relative to control; format: functional
[8] = system: Sida spinosa; assay: Pre-emergence herbicidal activity against Sida spinosa assessed as injury at 150 g/ha applied at 24 hr post-sowing measured after 28 days relative to control; format: functional
[9] = system: Triticum aestivum; assay: Phytotoxicity against Triticum aestivum (wheat) assessed as injury at 150 g/ha applied as pre-emergent treatment at 24 hr post-sowing measured after 28 days relative to control; format: organism-based; details: in vivo, other, 672 h
[10] = system: Stellaria media; assay: Post-emergence herbicidal activity against Stellaria media assessed as injury at 15 g/ha applied at 15 days post-sowing measured after 15 days relative to control; format: functional
[11] = system: Matricaria chamomilla; assay: Post-emergence herbicidal activity against Matricaria chamomilla assessed as injury at 50 g/ha applied at 15 days post-sowing measured after 15 days relative to control; format: functional
[12] = system: Oryza sativa; assay: Phytotoxicity against Oryza sativa (rice) assessed as injury at 50 g/ha applied as post-emergent treatment at 15 days post-sowing measured after 15 days relative to control; format: organism-based; details: in vivo, other, 360 h
[13] = system: Ammi majus; assay: Pre-emergence herbicidal activity against Amni maius assessed as injury at 50 g/ha applied at 24 hr post-sowing measured after 28 days relative to control; format: functional
[14] = system: Echinochloa crus-galli; assay: Pre-emergence herbicidal activity against Echinochloa crus-galli (barnyard grass) assessed as injury at 50 g/ha applied at 24 hr post-sowing measured after 28 days relative to control; format: functional
[15] = system: Amaranthus retroflexus; assay: Post-emergence herbicidal activity against Amaranthus retroflexus assessed as injury at 50 g/ha applied at 15 days post-sowing measured after 15 days relative to control; format: functional
[16] = molecular target: T1, Putative protoporphyrinogen IX oxidase (Cucumis sativus) (UniProt C6L817); assay: Inhibition of protoporphyrin oxidase in Cucumis sativus (cucumber) cotyledon disc assessed as increase in extraplastidic protoporphyrin 9 accumulation at 10 uM incubated in dim light for 2 hr by HPLC analysis relative to control
T1 sequence (whole entry): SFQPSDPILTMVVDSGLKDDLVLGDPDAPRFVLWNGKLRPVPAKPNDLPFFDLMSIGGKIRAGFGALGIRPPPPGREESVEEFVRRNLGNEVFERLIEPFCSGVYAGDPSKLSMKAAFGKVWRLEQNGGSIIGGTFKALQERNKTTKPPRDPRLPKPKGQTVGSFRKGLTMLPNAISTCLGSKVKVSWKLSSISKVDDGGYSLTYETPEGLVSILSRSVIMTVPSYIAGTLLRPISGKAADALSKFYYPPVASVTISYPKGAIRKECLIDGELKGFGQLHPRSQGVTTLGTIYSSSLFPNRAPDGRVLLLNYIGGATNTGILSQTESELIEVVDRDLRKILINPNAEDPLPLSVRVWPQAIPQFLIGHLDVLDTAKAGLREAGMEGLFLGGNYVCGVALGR

[17] = system: Glycine max; assay: Phytotoxicity against Glycine max (soybean) assessed as injury at 150 g/ha applied as post-emergent treatment at 15 days post-sowing measured after 15 days relative to control; format: organism-based; details: in vivo, other, 360 h
[18] = system: Abutilon theophrasti; assay: Post-emergence herbicidal activity against Abutilon theophrasti (velvetleaf) assessed as injury at 15 g/ha applied at 15 days post-sowing measured after 15 days relative to control; format: functional
[19] = system: Brassica napus; assay: Phytotoxicity against Brassica napus (oilseed rape) assessed as injury at 50 g/ha applied as pre-emergent treatment at 24 hr post-sowing measured after 28 days relative to control; format: organism-based; details: in vivo, other, 672 h
[20] = system: Stellaria media; assay: Pre-emergence herbicidal activity against Stellaria media assessed as injury at 50 g/ha applied at 24 hr post-sowing measured after 28 days relative to control; format: functional
[21] = system: Calystegia sepium; assay: Pre-emergence herbicidal activity against Calystegia sepium assessed as injury at 50 g/ha applied at 24 hr post-sowing measured after 28 days relative to control; format: functional
[22] = system: Calystegia sepium; assay: Post-emergence herbicidal activity against Calystegia sepium assessed as injury at 15 g/ha applied at 15 days post-sowing measured after 15 days relative to control; format: functional
[23] = system: Calystegia sepium; assay: Pre-emergence herbicidal activity against Calystegia sepium assessed as injury at 150 g/ha applied at 24 hr post-sowing measured after 28 days relative to control; format: functional
[24] = system: Solanum nigrum; assay: Post-emergence herbicidal activity against Solanum nigrum (black nightshade) assessed as injury at 150 g/ha applied at 15 days post-sowing measured after 15 days relative to control; format: functional
[25] = system: Setaria viridis; assay: Pre-emergence herbicidal activity against Setaria viridis (green foxtail) assessed as injury at 50 g/ha applied at 24 hr post-sowing measured after 28 days relative to control; format: functional
[26] = system: Beta vulgaris; assay: Phytotoxicity against Beta vulgaris assessed as injury at 150 g/ha applied as pre-emergent treatment at 24 hr post-sowing measured after 28 days relative to control; format: organism-based; details: in vivo, other, 672 h
[27] = system: Persicaria maculosa; assay: Post-emergence herbicidal activity against Persicaria maculosa assessed as injury at 5 g/ha applied at 15 days post-sowing measured after 15 days relative to control; format: functional
[28] = system: Sorghum bicolor; assay: Pre-emergence herbicidal activity against Sorghum bicolor assessed as injury at 150 g/ha applied at 24 hr post-sowing measured after 28 days relative to control; format: functional
[29] = system: Sorghum bicolor; assay: Post-emergence herbicidal activity against Sorghum bicolor assessed as injury at 15 g/ha applied at 15 days post-sowing measured after 15 days relative to control; format: functional
[30] = system: Ipomoea purpurea; assay: Pre-emergence herbicidal activity against Ipomoea purpurea (common morning-glory) assessed as injury at 150 g/ha applied at 24 hr post-sowing measured after 28 days relative to control; format: functional
[31] = system: Stellaria media; assay: Post-emergence herbicidal activity against Stellaria media assessed as injury at 50 g/ha applied at 15 days post-sowing measured after 15 days relative to control; format: functional
[32] = system: Portulaca oleracea; assay: Post-emergence herbicidal activity against Portulaca oleracea assessed as injury at 5 g/ha applied at 15 days post-sowing measured after 15 days relative to control; format: functional
[33] = system: Abutilon theophrasti; assay: Post-emergence herbicidal activity against Abutilon theophrasti (velvetleaf) assessed as injury at 50 g/ha applied at 15 days post-sowing measured after 15 days relative to control; format: functional

## C#CCOc1cc(-n2nc(C(C)(C)C)sc2=O)c(Cl)cc1Cl
[1]
  Activity: 90%
[2]
  Activity: 0%
[3]
  Activity: 50%
[4]
  Activity: 90%
[5]
  Activity: 10%
[6]
  Activity: 0%
[7]
  Activity: 0%
[8]
  Activity: 0%
[9]
  Activity: 0%
[10]
  Activity: 0%
[11]
  Activity: 0%
[12]
  Activity: 0%
[13]
  Activity: 0%
[14]
  Activity: 30%
[15]
  Activity: 50%
[16]
  fold change (FC): 234
[17]
  Activity: 30%
[18]
  Activity: 30%
[19]
  Activity: 0%
[20]
  Activity: 0%
[21]
  Activity: 0%
[22]
  Activity: 50%
[23]
  Activity: 0%
[24]
  Activity: 90%
[25]
  Activity: 30%
[26]
  Activity: 10%
[27]
  Activity: 30%
[28]
  Activity: 50%
[29]
  Activity: 10%
[30]
  Activity: 0%
[31]
  Activity: 0%
[32]
  Activity: 50%
[33]
  Activity: 70%
